The text below walks through data of patent US12459921B2, “Isoindoline compound, preparation method, pharmaceutical composition and use thereof” (SHANGHAI INSTITUTE OF MATERIA MEDICA, CHINESE ACADEMY OF …, priority 2018, dated 2025).

Structures are written as SMILES. Some results are limits rather than exact numbers.

For the experiment, the system named is MM.1S cells. Briefly: Inhibitory effect on the proliferation of MM.1S, MTS cell viability test. Format: cell-based. The following applies: Homo sapiens, MM1.S, 168 h, multiple myeloma MM.1S cells, 7 days incubation, read-out: Tumor cell inhibitory activity. Here is the method: Method of tumor cell proliferation inhibition test: the inventors tested all the example compounds on hematologic tumor cells, multiple myeloma MMTs cell line and acute leukemia cell MV-4-11 cell line of some examples. The activity test method and results are as follows.
1. The Compound's Inhibitory Effect on the Proliferation of MM.1S, MTS Cell Viability Test:
MM.1S cells were cultured and collected with 1640 plus 10% fetal bovine serum. The cell concentration was diluted according to 7 days, and 180 ul cell suspension was added to each well of the 96-well cell plate to 20,000 cells. 20 ul of DMSO with a final concentration of 0.2% was added to the control wells. The compound was 5-fold diluted—from the 10 mM stock solution, and 20 ul was also added to each compound cell well (the final concentration of DMSO was 0.2%). The cells were placed in a 37° C., 5% CO2 incubator to incubate for 7 days. After the reaction solution was prepared according to the MTS kit (Promega, G5430), 20 μL was added to each well and incubated in a 37° C., 5% CO2 incubator for 3-4 h. Absorbance value at 490 nm was read with a microtiter plate, and 690 nm absorbance value was used as the background value. OD490-OD690 was used as the final initial data. The formula for calculating the inhibition rate of the compound is: inhibition rate=(ODDMSO-ODcompound)/(ODDMSO-Oblank)×100%. The compound's proliferation inhibition IC50 was fitted by Graph Pad Prism 5.0. The experiment was repeated three times, and the average and standard deviation was calculated according to the three parallel experiments.
Cell viability test results: **** represents cell viability IC50>20 μM, […] represents cell viability 1 μM<IC50<20 μM, ** represents cell viability 100 nM<IC50<1 μM, * represents cell viability IC50<100 nM.

For the molecule `O=C1CCC(N2Cc3c(OCCCNC(=O)N4CCN(c5cccc(Cl)c5Cl)CC4)cccc3C2=O)C(=O)N1` (centres unmarked) [Example 34], the IC50 was in the range of 1 to 20 µM. Turning to `O=C1CCC(N2Cc3c(CCCCCCN4CCN(c5cccc(Cl)c5Cl)CC4)cccc3C2=O)C(=O)N1` (centres unmarked) [Example 35, 3-(4-(6-(4-(2,3-dichlorophenyl)piperazine-1-)hexyl)-1-oxoisoindoline-2-)piperidine-2,6-dione], the IC50 is < 0.1 µM. As to `N#Cc1ccc(N2CCN(CCCCc3cccc4c3CN(C3CCC(=O)NC3=O)C4=O)CC2)cc1` (centres unmarked) [Example 36, 4-(4-(4-(2-(2,6-dioxopiperidine-3-)-1-oxoisoindoline-4-)butyl)piperazine-1-)benzonitrile], the IC50 was < 0.1 µM. For the molecule `O=C1CCC(N2Cc3c(CCCCN4CCN(c5cccc(Cl)c5)CC4)cccc3C2=O)C(=O)N1` (centres unmarked) [Example 37, 3-(4-(4-(4-(3-chlorophenyl)piperazine-1-)butyl)-1-oxoisoindoline-2-)piperidine-2,6-dione], the IC50 was < 0.1 µM. For `N#Cc1ccccc1N1CCN(CCCCc2cccc3c2CN(C2CCC(=O)NC2=O)C3=O)CC1` (centres unmarked) [Example 38, 2-(4-(4-(2-(2,6-dioxopiperidine-3-)-1-oxoisoindoline-4-)butyl)piperazine-1-)benzonitrile], the IC50 was < 0.1 µM. Regarding `O=C1CCC(N2Cc3c(CCCCN4CCN(c5ccc(F)cc5)CC4)cccc3C2=O)C(=O)N1` (centres unmarked) [Example 39, 3-(4-(4-(4-(4-fluorophenyl)piperazine-1-)butyl)-1-oxoisoindoline-2-)piperidine-2,6-dione], the IC50 is < 0.1 µM. To `Cc1cccc(N2CCN(CCCCc3cccc4c3CN(C3CCC(=O)NC3=O)C4=O)CC2)c1` (centres unmarked) [Example 40, 3-(1-oxo-4-(4-(4-(3-methylphenyl)piperazine-1-)butyl)isoindoline-2-)piperidine-2,6-dione] belongs < 0.1 µM; to `O=C1CCC(N2Cc3c(CCCCN4CCN(c5ccc(Cl)cc5)CC4)cccc3C2=O)C(=O)N1` (centres unmarked) [Example 41, 3-(4-(4-(4-(4-chlorophenyl)piperazine-1-)butyl)-1-oxoisoindoline-2-)piperidine-2,6-dione], < 0.1 µM; to `O=C1CCC(N2Cc3c(CCCCN4CCN(c5ccc([N+](=O)[O-])cc5)CC4)cccc3C2=O)C(=O)N1` (centres unmarked) [Example 42, 3-(4-(4-(4-(4-nitrophenyl)piperazine-1-)butyl)-1-oxoisoindoline-2-)piperidine-2,6-dione], < 0.1 µM. On to `O=C1CCC(N2Cc3c(CCCCN4CCN(c5ccc(F)cc5F)CC4)cccc3C2=O)C(=O)N1` (centres unmarked) [Example 43, 3-(4-(4-(4-(2,4-difluorophenyl)piperazine-1-)butyl)-1-oxoisoindoline-2-)piperidine-2,6-dione], for which the IC50 was < 0.1 µM. `O=C1CCC(N2Cc3c(CCCCN4CCN(c5ccc(Cl)c(Cl)c5)CC4)cccc3C2=O)C(=O)N1` (centres unmarked) [Example 44, 3-(4-(4-(4-(3,4-dichlorophenyl)piperazine-1-)butyl)-1-oxoisoindoline-2-)piperidine-2,6-dione]: the IC50 is < 0.1 µM. `O=C1CCC(N2Cc3c(CCCCN4CCN(c5ccc(C(F)(F)F)cc5)CC4)cccc3C2=O)C(=O)N1` (centres unmarked) [Example 45, 3-(1-oxo-4-(4-(4-(4-trifluoromethylphenyl)piperazine-1-)butyl)isoindoline-2-)piperidine-2,6-dione]: the IC50 was < 0.1 µM.

Turning to `COc1ccc(N2CCN(CCCCc3cccc4c3CN(C3CCC(=O)NC3=O)C4=O)CC2)cc1` (centres unmarked) [Example 46, 3-(4-(4-(4-(4-methoxyphenyl)piperazine-1-)butyl)-1-oxoisoindoline-2-)piperidine-2,6-dione], the IC50 is 0.1 to 1 µM. Regarding `O=C1CCC(N2C(=O)c3cccc(OCCCCOc4ccnc5ccccc45)c3C2=O)C(=O)N1` (centres unmarked) [Example 47, 2-(2,6-dioxopiperidine-3-)-4-(4-(quinoline-4-oxy)butoxy)isoindoline-1,3-dione], the IC50 was < 0.1 µM.
